{
  "source": "paper PMC6407913",
  "about": "“DREADD Agonist 21 Is an Effective Agonist for Muscarinic-Based DREADDs in Vitro and in Vivo” (ACS Pharmacology & Translational Science, 2018)",
  "type_in_all_cases": "cell-based",
  "key": {"[1]": {"biological_target": "T1, 318 nonolfactory human GPCRs (Homo sapiens, UniProt P46095)", "T1 construct": "expressed in transfected cells; host or cells: HTLA cells, transient", "details": "GPR6; C21 5 µM"}, "[2]": {"biological_target": "T2, 318 nonolfactory human GPCRs (Homo sapiens, UniProt P60893)", "T2 construct": "expressed in transfected cells; host or cells: HTLA cells, transient", "details": "GPR85; C21 5 µM"}, "[3]": {"biological_target": "T3, 318 nonolfactory human GPCRs (Homo sapiens, UniProt O15218)", "T3 construct": "expressed in transfected cells; host or cells: HTLA cells, transient", "details": "GPR182; C21 5 µM"}, "[4]": {"biological_target": "318 nonolfactory human GPCRs (Homo sapiens, UniProt P48546)", "details": "GIPR; C21 5 µM"}, "[5]": {"biological_target": "T4, 318 nonolfactory human GPCRs (Homo sapiens, UniProt Q8IWK6)", "T4 construct": "expressed in transfected cells; host or cells: HTLA cells, transient", "T4 sequence (Q8IWK6 34-1321)": "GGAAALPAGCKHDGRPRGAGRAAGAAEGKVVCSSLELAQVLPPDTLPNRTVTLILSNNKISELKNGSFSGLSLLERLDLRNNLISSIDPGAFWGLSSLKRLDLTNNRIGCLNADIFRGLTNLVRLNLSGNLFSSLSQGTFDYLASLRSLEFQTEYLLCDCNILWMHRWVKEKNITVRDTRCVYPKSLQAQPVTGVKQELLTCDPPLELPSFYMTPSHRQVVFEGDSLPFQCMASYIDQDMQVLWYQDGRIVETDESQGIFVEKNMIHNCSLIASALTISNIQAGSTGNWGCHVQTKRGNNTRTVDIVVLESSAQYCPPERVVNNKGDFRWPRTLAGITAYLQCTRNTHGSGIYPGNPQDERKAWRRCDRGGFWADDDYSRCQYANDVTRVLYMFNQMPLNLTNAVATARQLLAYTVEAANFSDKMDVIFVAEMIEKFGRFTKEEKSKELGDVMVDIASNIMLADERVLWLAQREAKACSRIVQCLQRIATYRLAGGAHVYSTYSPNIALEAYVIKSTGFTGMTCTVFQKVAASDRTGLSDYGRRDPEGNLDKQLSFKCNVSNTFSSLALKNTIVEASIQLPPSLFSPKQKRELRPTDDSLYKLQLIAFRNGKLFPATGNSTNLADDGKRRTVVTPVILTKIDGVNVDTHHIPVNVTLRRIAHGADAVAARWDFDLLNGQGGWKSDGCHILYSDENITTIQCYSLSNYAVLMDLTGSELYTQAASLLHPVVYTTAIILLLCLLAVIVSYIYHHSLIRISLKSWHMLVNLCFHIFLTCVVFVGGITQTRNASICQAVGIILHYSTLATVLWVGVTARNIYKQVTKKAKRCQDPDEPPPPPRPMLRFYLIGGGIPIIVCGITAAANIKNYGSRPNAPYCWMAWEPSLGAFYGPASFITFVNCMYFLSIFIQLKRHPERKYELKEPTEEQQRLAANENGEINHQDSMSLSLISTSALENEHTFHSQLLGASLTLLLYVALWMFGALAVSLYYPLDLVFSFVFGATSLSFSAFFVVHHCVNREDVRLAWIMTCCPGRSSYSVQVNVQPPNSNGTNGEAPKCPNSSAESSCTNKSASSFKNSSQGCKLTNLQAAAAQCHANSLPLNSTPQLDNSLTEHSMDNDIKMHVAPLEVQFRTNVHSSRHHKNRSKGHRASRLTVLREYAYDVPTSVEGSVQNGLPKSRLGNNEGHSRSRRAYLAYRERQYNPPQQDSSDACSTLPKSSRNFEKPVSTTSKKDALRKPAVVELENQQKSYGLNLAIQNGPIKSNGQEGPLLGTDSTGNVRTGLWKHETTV", "details": "GPR125; C21 5 µM"}, "[6]": {"biological_target": "318 nonolfactory human GPCRs (Homo sapiens, UniProt P25025)", "details": "CXCR2; C21 5 µM"}, "[7]": {"biological_target": "318 nonolfactory human GPCRs (Homo sapiens, UniProt P25090)", "sequence (P25090 whole entry)": "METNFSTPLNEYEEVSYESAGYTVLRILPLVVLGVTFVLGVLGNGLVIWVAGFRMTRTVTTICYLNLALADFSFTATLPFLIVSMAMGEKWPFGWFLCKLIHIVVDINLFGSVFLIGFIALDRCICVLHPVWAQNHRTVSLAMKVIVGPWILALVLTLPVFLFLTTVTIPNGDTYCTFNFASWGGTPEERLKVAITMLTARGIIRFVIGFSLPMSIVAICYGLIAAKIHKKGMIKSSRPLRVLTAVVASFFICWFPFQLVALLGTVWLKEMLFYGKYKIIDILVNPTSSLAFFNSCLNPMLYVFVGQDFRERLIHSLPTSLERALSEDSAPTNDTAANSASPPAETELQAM", "details": "FPR2; C21 5 µM"}, "[8]": {"biological_target": "T5, 318 nonolfactory human GPCRs (Homo sapiens, UniProt P08908)", "T5 construct": "expressed in transfected cells; host or cells: HTLA cells, transient", "details": "HTR1A; C21 5 µM"}, "[9]": {"biological_target": "T6, 318 nonolfactory human GPCRs (Homo sapiens, UniProt Q9Y5Y3)", "T6 construct": "expressed in transfected cells; host or cells: HTLA cells, transient", "details": "GPR45; C21 5 µM"}, "[10]": {"biological_target": "T7, 318 nonolfactory human GPCRs (Homo sapiens, UniProt P28336)", "T7 construct": "expressed in transfected cells; host or cells: HTLA cells, transient", "details": "NMBR; C21 5 µM"}, "[11]": {"biological_target": "T8, 318 nonolfactory human GPCRs (Homo sapiens, UniProt P34969)", "T8 construct": "expressed in transfected cells; host or cells: HTLA cells, transient", "details": "HTR7; C21 5 µM"}, "[12]": {"biological_target": "T9, 318 nonolfactory human GPCRs (Homo sapiens, UniProt Q01718)", "T9 construct": "expressed in transfected cells; host or cells: HTLA cells, transient", "details": "MC2R; C21 5 µM"}, "[13]": {"biological_target": "T10, 318 nonolfactory human GPCRs (Homo sapiens, UniProt P50052)", "T10 construct": "expressed in transfected cells; host or cells: HTLA cells, transient", "details": "AGTR2; C21 5 µM"}, "[14]": {"biological_target": "T11, 318 nonolfactory human GPCRs (Homo sapiens, UniProt Q9BZJ7)", "T11 construct": "expressed in transfected cells; host or cells: HTLA cells, transient", "details": "GPR62; C21 5 µM"}, "[15]": {"biological_target": "T12, 318 nonolfactory human GPCRs (Homo sapiens, UniProt P25106)", "T12 construct": "expressed in transfected cells; host or cells: HTLA cells, transient", "details": "CXCR7; C21 5 µM"}, "[16]": {"biological_target": "T13, 318 nonolfactory human GPCRs (Homo sapiens, UniProt P41594)", "T13 construct": "expressed in transfected cells; host or cells: HTLA cells, transient", "details": "GRM5; C21 5 µM"}, "[17]": {"biological_target": "T14, 318 nonolfactory human GPCRs (Homo sapiens, UniProt Q8WXD0)", "T14 construct": "expressed in transfected cells; host or cells: HTLA cells, transient", "details": "RXFP2; C21 5 µM"}, "[18]": {"biological_target": "318 nonolfactory human GPCRs (Homo sapiens, UniProt Q8IYL9)", "details": "GPR65; C21 5 µM"}, "[19]": {"biological_target": "T15, 318 nonolfactory human GPCRs (Homo sapiens, UniProt P47898)", "T15 construct": "expressed in transfected cells; host or cells: HTLA cells, transient", "details": "HTR5; C21 5 µM"}, "[20]": {"biological_target": "T16, 318 nonolfactory human GPCRs (Homo sapiens, UniProt P25116)", "T16 construct": "expressed in transfected cells; host or cells: HTLA cells, transient", "T16 sequence (P25116 22-425)": "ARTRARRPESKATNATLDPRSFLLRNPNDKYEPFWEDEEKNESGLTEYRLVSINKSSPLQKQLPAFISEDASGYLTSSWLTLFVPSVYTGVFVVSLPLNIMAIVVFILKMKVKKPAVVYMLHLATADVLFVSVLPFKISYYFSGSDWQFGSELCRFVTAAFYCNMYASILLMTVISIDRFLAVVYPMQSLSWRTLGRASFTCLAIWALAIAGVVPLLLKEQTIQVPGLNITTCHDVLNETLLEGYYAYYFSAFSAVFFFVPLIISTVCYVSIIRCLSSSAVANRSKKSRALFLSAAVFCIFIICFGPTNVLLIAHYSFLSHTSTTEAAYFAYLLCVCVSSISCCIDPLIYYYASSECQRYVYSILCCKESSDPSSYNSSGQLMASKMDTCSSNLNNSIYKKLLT", "details": "F2R; C21 5 µM"}, "[21]": {"biological_target": "T17, 318 nonolfactory human GPCRs (Homo sapiens, UniProt Q9HC97)", "T17 construct": "expressed in transfected cells; host or cells: HTLA cells, transient", "details": "GPR35; C21 5 µM"}, "[22]": {"biological_target": "T18, 318 nonolfactory human GPCRs (Homo sapiens, UniProt Q86SM8)", "T18 construct": "expressed in transfected cells; host or cells: HTLA cells, transient", "details": "MRGPRE; C21 5 µM"}, "[23]": {"biological_target": "T19, 318 nonolfactory human GPCRs (Homo sapiens, UniProt Q13585)", "T19 construct": "expressed in transfected cells; host or cells: HTLA cells, transient", "details": "GPR50; C21 5 µM"}, "[24]": {"biological_target": "T20, 318 nonolfactory human GPCRs (Homo sapiens, UniProt Q9P296)", "T20 construct": "expressed in transfected cells; host or cells: HTLA cells, transient", "details": "GPR77; C21 5 µM"}, "[25]": {"biological_target": "T21, 318 nonolfactory human GPCRs (Homo sapiens, UniProt P32247)", "T21 construct": "expressed in transfected cells; host or cells: HTLA cells, transient", "details": "BB3; C21 5 µM"}, "[26]": {"biological_target": "T22, 318 nonolfactory human GPCRs (Homo sapiens, UniProt Q15760)", "T22 construct": "expressed in transfected cells; host or cells: HTLA cells, transient", "details": "GPR19; C21 5 µM"}, "[27]": {"biological_target": "318 nonolfactory human GPCRs (Homo sapiens, UniProt P28335, I156V/I160V)", "details": "HTR2C VNV; C21 5 µM"}, "[28]": {"biological_target": "318 nonolfactory human GPCRs (Homo sapiens, UniProt P32239)", "sequence (P32239 whole entry)": "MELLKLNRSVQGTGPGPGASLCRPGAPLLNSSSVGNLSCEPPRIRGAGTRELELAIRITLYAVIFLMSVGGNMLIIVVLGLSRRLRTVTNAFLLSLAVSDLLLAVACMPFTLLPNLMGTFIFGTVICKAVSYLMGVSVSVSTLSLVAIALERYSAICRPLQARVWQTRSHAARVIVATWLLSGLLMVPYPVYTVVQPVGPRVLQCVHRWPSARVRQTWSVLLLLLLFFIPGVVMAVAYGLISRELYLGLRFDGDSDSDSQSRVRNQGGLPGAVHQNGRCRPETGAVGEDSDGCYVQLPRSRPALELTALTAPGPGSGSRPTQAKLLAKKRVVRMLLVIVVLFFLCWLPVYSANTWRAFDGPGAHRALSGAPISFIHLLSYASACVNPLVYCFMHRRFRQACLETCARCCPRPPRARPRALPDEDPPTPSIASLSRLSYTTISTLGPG", "details": "CCKBR; C21 5 µM"}, "[29]": {"biological_target": "318 nonolfactory human GPCRs (Homo sapiens, UniProt P43220)", "sequence (P43220 24-463)": "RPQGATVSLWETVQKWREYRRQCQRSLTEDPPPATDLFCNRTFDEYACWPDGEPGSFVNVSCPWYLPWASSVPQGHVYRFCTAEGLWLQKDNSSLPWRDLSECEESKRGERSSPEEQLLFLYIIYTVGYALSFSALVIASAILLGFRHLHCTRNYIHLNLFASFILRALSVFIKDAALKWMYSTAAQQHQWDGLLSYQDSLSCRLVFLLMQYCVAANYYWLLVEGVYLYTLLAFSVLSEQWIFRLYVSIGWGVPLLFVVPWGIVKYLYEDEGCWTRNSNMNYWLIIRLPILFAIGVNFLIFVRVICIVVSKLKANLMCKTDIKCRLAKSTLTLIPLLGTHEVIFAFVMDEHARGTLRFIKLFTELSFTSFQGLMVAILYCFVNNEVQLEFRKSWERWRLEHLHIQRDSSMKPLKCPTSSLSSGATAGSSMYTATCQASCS", "details": "GLP1R; C21 5 µM"}, "[30]": {"biological_target": "318 nonolfactory human GPCRs (Homo sapiens, UniProt P46093)", "sequence (P46093 whole entry)": "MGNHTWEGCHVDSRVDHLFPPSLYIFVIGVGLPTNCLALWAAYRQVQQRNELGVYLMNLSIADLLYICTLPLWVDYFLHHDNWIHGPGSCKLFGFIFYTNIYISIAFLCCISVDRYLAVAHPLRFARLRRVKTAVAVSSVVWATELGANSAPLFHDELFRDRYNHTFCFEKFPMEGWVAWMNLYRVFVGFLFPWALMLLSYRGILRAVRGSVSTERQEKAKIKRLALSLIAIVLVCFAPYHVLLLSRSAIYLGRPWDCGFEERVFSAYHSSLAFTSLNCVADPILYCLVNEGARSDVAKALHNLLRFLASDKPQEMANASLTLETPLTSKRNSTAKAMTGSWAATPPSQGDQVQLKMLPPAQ", "details": "GPR4; C21 5 µM"}, "[31]": {"biological_target": "T23, 318 nonolfactory human GPCRs (Homo sapiens, UniProt Q9NS75)", "T23 construct": "expressed in transfected cells; host or cells: HTLA cells, transient", "T23 sequence (Q9NS75 whole entry)": "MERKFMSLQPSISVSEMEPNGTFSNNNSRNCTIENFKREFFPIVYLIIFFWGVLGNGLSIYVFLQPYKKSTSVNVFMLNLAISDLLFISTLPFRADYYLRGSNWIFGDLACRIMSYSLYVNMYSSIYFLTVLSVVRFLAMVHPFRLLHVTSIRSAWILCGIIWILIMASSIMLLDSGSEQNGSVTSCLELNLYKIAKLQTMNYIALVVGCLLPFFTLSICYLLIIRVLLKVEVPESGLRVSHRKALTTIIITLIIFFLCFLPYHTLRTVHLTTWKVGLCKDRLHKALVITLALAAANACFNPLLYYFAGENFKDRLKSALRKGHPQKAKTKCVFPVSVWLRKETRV", "details": "CYSLTR2; C21 5 µM"}, "[32]": {"biological_target": "318 nonolfactory human GPCRs (Homo sapiens, UniProt P41595)", "sequence (P41595 whole entry)": "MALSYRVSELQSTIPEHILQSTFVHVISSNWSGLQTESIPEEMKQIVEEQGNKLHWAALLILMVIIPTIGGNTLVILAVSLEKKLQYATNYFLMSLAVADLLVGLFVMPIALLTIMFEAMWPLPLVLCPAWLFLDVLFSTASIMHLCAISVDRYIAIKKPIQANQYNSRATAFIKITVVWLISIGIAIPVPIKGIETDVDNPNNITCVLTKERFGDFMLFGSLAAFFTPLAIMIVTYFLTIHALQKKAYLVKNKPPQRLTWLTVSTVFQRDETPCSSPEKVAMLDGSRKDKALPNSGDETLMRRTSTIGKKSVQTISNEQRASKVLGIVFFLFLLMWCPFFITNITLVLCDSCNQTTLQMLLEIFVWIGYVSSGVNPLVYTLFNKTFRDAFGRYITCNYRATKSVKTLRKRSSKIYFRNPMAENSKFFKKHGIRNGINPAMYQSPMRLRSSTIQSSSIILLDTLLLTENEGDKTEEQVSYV", "details": "HTR2B; C21 5 µM"}, "[33]": {"biological_target": "T24, 318 nonolfactory human GPCRs (Homo sapiens, UniProt P30518)", "T24 construct": "expressed in transfected cells; host or cells: HTLA cells, transient", "T24 sequence (P30518 whole entry)": "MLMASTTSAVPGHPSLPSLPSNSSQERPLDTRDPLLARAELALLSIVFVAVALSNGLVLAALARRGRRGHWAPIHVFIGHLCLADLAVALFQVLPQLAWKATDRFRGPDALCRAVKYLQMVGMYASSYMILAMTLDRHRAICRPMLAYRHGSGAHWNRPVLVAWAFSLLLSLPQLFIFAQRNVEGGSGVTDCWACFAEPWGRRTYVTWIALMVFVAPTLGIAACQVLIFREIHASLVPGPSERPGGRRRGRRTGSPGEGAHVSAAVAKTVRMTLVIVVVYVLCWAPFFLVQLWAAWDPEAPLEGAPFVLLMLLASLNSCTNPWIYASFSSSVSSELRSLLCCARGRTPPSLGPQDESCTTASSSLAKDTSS", "details": "AVPR2; C21 5 µM"}, "[34]": {"biological_target": "T25, 318 nonolfactory human GPCRs (Homo sapiens, UniProt Q99679)", "T25 construct": "expressed in transfected cells; host or cells: HTLA cells, transient", "T25 sequence (Q99679 whole entry)": "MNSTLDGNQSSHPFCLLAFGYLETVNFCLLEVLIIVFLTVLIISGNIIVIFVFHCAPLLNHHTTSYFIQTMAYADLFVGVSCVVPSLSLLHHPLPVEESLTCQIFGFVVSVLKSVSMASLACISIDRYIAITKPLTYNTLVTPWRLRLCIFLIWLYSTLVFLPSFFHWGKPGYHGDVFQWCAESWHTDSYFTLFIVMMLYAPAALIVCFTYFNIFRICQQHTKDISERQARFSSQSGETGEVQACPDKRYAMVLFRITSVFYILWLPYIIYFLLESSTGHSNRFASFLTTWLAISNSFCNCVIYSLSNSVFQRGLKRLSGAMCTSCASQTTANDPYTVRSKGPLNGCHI", "details": "GPR21; C21 5 µM"}},
  "note": "“And” between values parts separate entries of the source, which are not always exact repeats. Equal entries are not always repeated.",
  "data": [
    {"compound": "c1ccc2c(c1)N=C(N1CCNCC1)c1ccccc1N2", "note": "[C21, 11-(1-piperazinyl)-5H-dibenzo[b,e][1,4]diazepine]", "values": [
      {"measurement": "FOLD OVER BASAL", "setting": "[1]", "result": "0.9 fold and 1.3 fold and 1 fold and 1.2 fold"},
      {"measurement": "FOLD OVER BASAL", "setting": "[2]", "result": "0.8 fold and 1.2 fold and 1 fold"},
      {"measurement": "FOLD OVER BASAL", "setting": "[3]", "result": "0.9 fold and 1 fold and 1.1 fold and 0.7 fold"},
      {"measurement": "FOLD OVER BASAL", "setting": "[4]", "result": "0.3 fold and 0.4 fold"},
      {"measurement": "FOLD OVER BASAL", "setting": "[5]", "result": "0.5 fold and 0.8 fold and 1 fold and 0.9 fold"},
      {"measurement": "FOLD OVER BASAL", "setting": "[6]", "result": "0.9 fold and 1 fold"},
      {"measurement": "FOLD OVER BASAL", "setting": "[7]", "result": "1 fold and 1.1 fold and 0.9 fold"},
      {"measurement": "FOLD OVER BASAL", "setting": "[8]", "result": "0.5 fold and 0.4 fold and 0.3 fold"},
      {"measurement": "FOLD OVER BASAL", "setting": "[9]", "result": "0.8 fold and 0.6 fold and 1 fold"},
      {"measurement": "FOLD OVER BASAL", "setting": "[10]", "result": "1 fold and 0.6 fold and 0.8 fold"},
      {"measurement": "FOLD OVER BASAL", "setting": "[11]", "result": "0.9 fold and 0.8 fold and 1 fold"},
      {"measurement": "FOLD OVER BASAL", "setting": "[12]", "result": "1.1 fold and 0.6 fold and 0.7 fold"},
      {"measurement": "FOLD OVER BASAL", "setting": "[13]", "result": "1.1 fold and 0.9 fold and 1 fold"},
      {"measurement": "FOLD OVER BASAL", "setting": "[14]", "result": "0.8 fold and 0.5 fold and 0.9 fold"},
      {"measurement": "FOLD OVER BASAL", "setting": "[15]", "result": "0.7 fold and 0.8 fold and 1.1 fold and 1.3 fold"},
      {"measurement": "FOLD OVER BASAL", "setting": "[16]", "result": "1.1 fold and 0.7 fold"},
      {"measurement": "FOLD OVER BASAL", "setting": "[17]", "result": "1.1 fold and 0.9 fold"},
      {"measurement": "FOLD OVER BASAL", "setting": "[18]", "result": "0.8 fold and 0.5 fold"},
      {"measurement": "FOLD OVER BASAL", "setting": "[19]", "result": "0.9 fold and 1 fold and 0.8 fold"},
      {"measurement": "FOLD OVER BASAL", "setting": "[20]", "result": "0.8 fold and 0.9 fold and 0.6 fold"},
      {"measurement": "FOLD OVER BASAL", "setting": "[21]", "result": "1 fold and 1.2 fold and 0.9 fold and 1.3 fold"},
      {"measurement": "FOLD OVER BASAL", "setting": "[22]", "result": "0.7 fold and 0.8 fold"},
      {"measurement": "FOLD OVER BASAL", "setting": "[23]", "result": "0.6 fold and 0.7 fold and 0.5 fold and 0.9 fold"},
      {"measurement": "FOLD OVER BASAL", "setting": "[24]", "result": "0.7 fold and 0.6 fold"},
      {"measurement": "FOLD OVER BASAL", "setting": "[25]", "result": "0.9 fold and 1.3 fold and 1 fold"},
      {"measurement": "FOLD OVER BASAL", "setting": "[26]", "result": "0.8 fold and 0.9 fold and 1.1 fold"},
      {"measurement": "FOLD OVER BASAL", "setting": "[27]", "result": "0.4 fold and 0.3 fold"},
      {"measurement": "FOLD OVER BASAL", "setting": "[28]", "result": "1.8 fold and 2.1 fold and 1.9 fold and 1.2 fold"},
      {"measurement": "FOLD OVER BASAL", "setting": "[29]", "result": "0.6 fold and 0.8 fold and 0.7 fold and 0.5 fold"},
      {"measurement": "FOLD OVER BASAL", "setting": "[30]", "result": "0.5 fold and 0.8 fold and 0.6 fold"},
      {"measurement": "FOLD OVER BASAL", "setting": "[31]", "result": "0.7 fold and 0.9 fold and 1.1 fold"},
      {"measurement": "FOLD OVER BASAL", "setting": "[32]", "result": "0.3 fold and 0.2 fold"},
      {"measurement": "FOLD OVER BASAL", "setting": "[33]", "result": "1.1 fold and 1.2 fold"},
      {"measurement": "FOLD OVER BASAL", "setting": "[34]", "result": "0.9 fold and 0.8 fold and 1.2 fold and 0.7 fold"}
    ]}
  ]
}
